Experimental data as given in patent US10085445B2, “Biocorrosion inhibitor for metal” (KURARAY CO., LTD., priority 2013, dated 2018).
In brackets after ≈: the same amount, converted by molar mass.

What was measured:
male CRj:CD(SD) rats = experiment: Oral toxicity test (14-day repeated dose); format: in vivo, rat; conditions: for NOEL (No Observed Effect Level): oral gavage once per day for 14 days, male rats
Description: A test substance was emulsified and dispersed in 2%-gum arabic aqueous solution (containing 0.5%-Tween80), and forcibly administered to 6-week-old male CRj:CD(SD) rats with an oral gavage needle once per day for 14 days. The body weight variation and general condition were observed during the dosing period. The rats were fasted for one day from the final administration day (with free ingestion of drinking water), and anatomy, collection of blood samples (various blood tests), and mass measurement of the major organs were performed the next day of the final administration. In addition, histopathological examination (optical microscopic observation of HE-stained sliced section) of the liver, kidney, spleen and testis was also performed. The dose was 1000, 250, 60, 15 or 0 mg/k day (administered liquid amount=1 ml/100 g (body weight)/day), and 5 rats were used for each dose.

[1] = test system: Pseudokirchneriella subcapitata; experiment: Toxicity test on algae (algae growth inhibitory test, OECD 201); format: cell-based; conditions: Selenastrum capricornutum; 72 hr, 23° C., growth inhibition; read-out: ErC50 (72 hr)
Method: By reference to the OECD test guideline No. 201, an algae growth inhibitory test of a test substance was performed. To be specific, the following test substance was diluted with a test medium to give a defined dose. A suspension of algae grown to the exponential growth phase by preculture was added at an initial concentration of 1×10^4 cells/ml. After shaking culture in a light irradiation-type bio shaker (Bio Shaker BR-180 LF manufactured by TAITEC) at 23° C., algae cells were counted by a flow cytometer (Cell Lab Quant SC manufactured by BECKMAN COULTER) at 24, 48, and 72 hr from the start of the test, and the growth degree of each test dose was calculated based on the growth degree of the normal control as 100%. Also, ErC50 was calculated from the equation of the approximate curve in a graph plotting the growth inhibitory rate. As a standard substance, potassium dichromate was used.
algae: Pseudokirchneriella subcapitata
test substance (1) and test substance (2), 100, 32, 10, 3.2, 1, 0.32 mg/L (geometric ratio: √{square root over ( )}10) and 0 mg/L (normal control), respectively
standard substance: 3.2, 1, 0.32 mg/L and 0 mg/L (normal control)

[2] = test system: sludge in the sewage treatment plant; experiment: Bactericidal test on sludge (MTT method); format: cell-based; conditions: 24 hr and 48 hr, about 25° C., visual and MTT
Method: Glucose, peptone, and monopotassium dihydrogen phosphate (each 5 g) were dissolved in water (1 L), and adjusted to pH 7.0±1.0 with sodium hydroxide to give synthetic sewer water, to which sludge in the sewage treatment plant in Mizushima area, Kurashiki-shi, Okayama-ken, Japan, was added at 30 ppm based on dry mass, whereby a bacterial culture was prepared. On the other hand, a test substance was diluted with distilled water in 10 phases to a final concentration of 1000-0.004 ppm (geometric ratio=4) on a 24 well microplate, and used as a test solution. Two wells were used for each concentration. As a comparison target, distilled water+bacterial culture was used as “bacterial culture blank”, and distilled water alone was used as “blank”.
The bacterial culture and test solution prepared above were mixed at a volume ratio 1:1, stood in a thermostatic tank at ambient temperature (about 25° C.) for 24 hr and 48 hr, and the level of sludge influence at each concentration of the test substance was visually observed and confirm by the MTT method. MTT reagent is converted by microorganism mitochondria in the sludge, forms formazan and develops a blue color.

| SMILES | NOEL (No Observed Effect Level) (male CRj:CD(SD) rats) | EC50 [1] | sterilizing concentration [2] | death case (male CRj:CD(SD) rats; maximum dose of 1000 mg/kg/day, oral, 14 days) |
| --- | --- | --- | --- | --- |
| O=CCCCC=O [glutaraldehyde] | 5 mg/kg | 9 µg/mL (≈ 89.9 µM) | 63 ppm |  |
| O=CCCCCCCCC=O [NL, 1,9-nonanedial] | 250 mg/kg |  |  | death case was not found |
